Results taken from paper PMC12363518, “Azobenzene-Modified Temperature-Responsive Short Elastin-like Peptides for Photo-Controlled Phase Transition” (ACS Synthetic Biology, 2025).
Numbered stars: 1 amine (or outer) side, 2 acyl side, 3 side chain; on linkers, the order of the positions; unused ones are H or OH. Bridge positions count the residues as written; N and C are the ends. Square brackets hold non-standard residues; d marks the D form. Peptide text beside a SMILES is read from it. I, II: the chains in the order shown. X1 = O=C(c1ccc(N=Nc2ccc(C(=O)[*:2])cc2)cc1)[*:1]; X2 = O=C(c1ccc(N=Nc2ccc(N[*:1])cc2)cc1)[*:2]; X3 = c1cc(N[*:1])ccc1N=Nc1ccc(N[*:2])cc1

Legend:
[1] = not given; remark: listed apart in the source
[2] = Particle size distribution by dynamic light scattering (DLS); assay type: physicochemical; settings: PBS
[3] = Turbidity measurement (OD600) of temperature-dependent phase separation, Tt; assay type: physicochemical; settings: even at 2.38 mM (5.00 mg/mL) in PBS; turbidity OD600
Description: The ability of the ELP–azobenzene conjugates to self-assemble was investigated by using turbidity measurements. In addition, we evaluated whether the photoisomerization of the azobenzene moieties induced differences in the aggregation ability of these analogues. Each peptide analogue was dissolved in PBS at different concentrations according to its water solubility. To quantitatively evaluate the aggregation ability, the transition temperature (T t) of the peptides was calculated from the change in optical density at a wavelength of 600 nm (OD600) associated with the increasing temperature (Table and Figure ).
The temperature-dependent self-assembly property of synthesized peptides was evaluated by using a JASCO V-660 spectral photometer (JASCO Co.). Each peptide was dissolved in PBS buffer or phosphate buffer solutions at various concentrations. Three types of phosphate buffers with the same ionic strength (μ = 0.100) but different pH (pH 7.4, 2.1, and 11.5) were prepared: phosphate buffer (pH 7.4, 29.4 mM Na2HPO4, 11.7 mM NaH2PO4), phosphate buffer (pH 2.1, 10.0 mM NaH2PO4, 10.5 mM phosphoric acid), and phosphate buffer (pH 11.5, 9.58 mM Na3PO4, 14.2 mM Na2HPO4). Turbidity was measured at 600 nm with increasing or decreasing temperature at a rate of 0.5 °C/min from 5 °C. The measurements were performed for the dark-adapted solution and after successive irradiation with UV light, visible light, and UV light. Each assay was repeated three times with different peptide solutions that were prepared separately. The phase separation property was described by the phase transition temperature (T t), which is the temperature at which the turbidity of the solution reaches half its maximum value.

[4] = Water solubility (observation); assay type: physicochemical; settings: qualitative observation

Compound | peak wavelength π–π* | peak wavelength n–π* [1] | self-assembly in dark-adapted solution (DLS) [2] | phase separation in PBS [3] | water solubility [4]
CC(C)[C@H](NC(=O)CNC(=O)[C@@H]1CCCN1C(=O)[C@H](Cc1ccccc1)NC(=O)CNC(=O)[C@@H](NC(=O)CNC(=O)[C@@H]1CCCN1C(=O)[C@@H](N)Cc1ccccc1)C(C)C)C(=O)NCC(=O)N[C@@H](CC(=O)O)C(=O)Nc1ccc(N=Nc2ccc(NC(=O)[C@H](CC(=O)O)NC(=O)CNC(=O)[C@@H](NC(=O)CNC(=O)[C@@H]3CCCN3C(=O)[C@H](Cc3ccccc3)NC(=O)CNC(=O)[C@@H](NC(=O)CNC(=O)[C@@H]3CCCN3C(=O)[C@@H](N)Cc3ccccc3)C(C)C)C(C)C)cc2)cc1 (I: H-FPGVGFPGVGD / II: H-FPGVGFPGVGD; linker I:C-II:C via X3) | 364 nm | 450 nm |  |  | 
CC(C)[C@H](NC(=O)CNC(=O)[C@@H]1CCCN1C(=O)[C@H](Cc1ccccc1)NC(=O)CNC(=O)[C@@H](NC(=O)CNC(=O)[C@@H]1CCCN1C(=O)[C@H](Cc1ccccc1)NC(=O)c1ccc(N=Nc2ccc(C(=O)N[C@@H](Cc3ccccc3)C(=O)N3CCC[C@H]3C(=O)NCC(=O)N[C@H](C(=O)NCC(=O)N[C@@H](Cc3ccccc3)C(=O)N3CCC[C@H]3C(=O)NCC(=O)N[C@H](C(=O)NCC(=O)O)C(C)C)C(C)C)cc2)cc1)C(C)C)C(=O)NCC(=O)O [Azb-2(F2)] (I: FPGVGFPGVG-OH / II: FPGVGFPGVG-OH; linker I:N-II:N via X1) |  |  | did not exhibit self-assembly | did not exhibit phase separation | 
CC(C)[C@H](NC(=O)CNC(=O)[C@@H]1CCCN1C(=O)[C@H](Cc1ccccc1)NC(=O)CNC(=O)[C@@H](NC(=O)CNC(=O)[C@@H]1CCCN1C(=O)[C@H](Cc1ccccc1)NC(=O)c1ccc(N=Nc2ccc(NC(=O)CNC(=O)[C@@H](NC(=O)CNC(=O)[C@@H]3CCCN3C(=O)[C@H](Cc3ccccc3)NC(=O)CNC(=O)[C@@H](NC(=O)CNC(=O)[C@@H]3CCCN3C(=O)[C@@H](N)Cc3ccccc3)C(C)C)C(C)C)cc2)cc1)C(C)C)C(=O)NCC(N)=O [F2-Azb-F2-NH2] (H-FPGVGFPGVG[X2]FPGVGFPGVG-NH2) | 356 nm | 450 nm |  |  | low water solubility
CC(C)[C@H](NC(=O)CNC(=O)[C@@H]1CCCN1C(=O)[C@H](Cc1ccccc1)NC(=O)CNC(=O)[C@@H](NC(=O)CNC(=O)[C@@H]1CCCN1C(=O)[C@H](Cc1ccccc1)NC(=O)c1ccc(N=Nc2ccc(NC(=O)CNC(=O)[C@@H](NC(=O)CNC(=O)[C@@H]3CCCN3C(=O)[C@H](Cc3ccccc3)NC(=O)CNC(=O)[C@@H](NC(=O)CNC(=O)[C@@H]3CCCN3C(=O)[C@@H](N)Cc3ccccc3)C(C)C)C(C)C)cc2)cc1)C(C)C)C(=O)NCC(=O)O [F2-Azb-F2] (H-FPGVGFPGVG[X2]FPGVGFPGVG-OH) | 354 nm | 444 nm |  |  | low water solubility
